According to PMC7352759, “S(+)-(2E)-N-(2-Hydroxypropyl)-3-Phenylprop-2-Enamide (KM-568): A Novel Cinnamamide Derivative with Anticonvulsant Activity in Animal Models of Seizures and Epilepsy” (International Journal of Molecular Sciences, 2020):

Legend:
[1] = Ames microplate format (MPF) assay, TA98; conditions: Salmonella typhimurium
Description: (§1) The Ames microplate format (MPF) mutagenicity assay (Xenometrix, Allschwil, Switzerland) was used to test KM-568 mutagenicity. Growth, exposure, and indicator media, positive control chemicals, and four Salmonella typhimurium strains TA98, TA100, TA1535 and TA1537 were included in the kit. TA100 and TA1535 strains detect base substitution mutations, whereas TA98 and TA1537 indicate frameshift mutations. The strains of bacteria included in a kit are in compliance with the Organization for Economic Cooperation and Development (OECD) 471 Guideline for Testing of Chemicals.
(§2) The assay is a liquid microplate modification of the traditional Salmonella test. During the procedure, bacteria are exposed to different concentrations of a test compound for 90 min in a medium containing sufficient histidine to support cell divisions. Then, the cultures are diluted in a pH indicator medium lacking histidine and aliquoted into 48 wells of a 384-well plate. Within 2 days, bacteria that have undergone reversion to amino acid prototrophy will form colonies. Products of bacteria metabolism reduce pH of the medium, changing the color of wells from purple to yellow.
(§3) The test procedure provided by Xenometrix and described in detail elsewhere was followed. Bacterial strains were grown overnight (14–16 h) in exposure medium in a shaker incubator and then exposed to KM-568 in 24-well plates for 90 min at 37 °C with agitation. Final KM-568 concentrations in the assay were 0.1, 0.2, and 0.5 mM. After preincubation, the cultures were diluted in the indicator medium and the contents of each 24-well culture were transferred to 48 wells on a 384-well plate and incubated further for 48 h at 37 °C without agitation. After the exposure, the number of wells containing bacteria was scored for yellow wells. […] Pure DMSO was used as a negative control. All doses were performed in triplicate.
(§4) The fold increase of revertants relative to the solvent control was determined by dividing the mean number of positive wells at each dose by the solvent control at baseline. The solvent control at baseline was calculated as the mean number of positive wells in the solvent control plus one standard deviation (SD). When an increase of more than twofold relative to the baseline at more than one dose with a dose–response was observed, the sample was classified as positive, whereas when no response > 2 times the baseline and no dose–response was stated, the sample was classified as negative.

[2] = test system: Salmonella typhimurium strains TA98, TA100, TA1535 and TA1537; assay: Ames microplate format (MPF) assay, overall verdict; conditions: 0.1, 0.2, 0.5 mM; four strains
Description: as §1
The assay is a liquid microplate modification of the traditional Salmonella test. During the procedure, bacteria are exposed to different concentrations of a test compound for 90 min in a medium containing sufficient histidine to support cell divisions. […]
The test procedure provided by Xenometrix and described in detail elsewhere was followed. […] After the exposure, the number of wells containing bacteria was scored for yellow wells. […]
The fold increase of revertants relative to the solvent control was determined by dividing the mean number of positive wells at each dose by the solvent control at baseline. The solvent control at baseline was calculated as the mean number of positive wells in the solvent control plus one standard deviation (SD). […]

[3] = Ames microplate format (MPF) assay, TA1535; conditions: Salmonella typhimurium, Salmonella typhimurium TA1535
Description: as §1, §2, §3, §4

mice = assay: Subcutaneous metrazol seizure threshold test (scMET), mice; format: in vivo; conditions: for ED50: Mus musculus, 95% confidence interval in parentheses
Method: In vivo activity testing was performed at the Epilepsy Branch, National Institute of Neurological Disorders and Stroke, National Institutes of Health (NIH, Bethesda, USA) within the Anticonvulsant Screening Program (ASP) (currently known as the Epilepsy Therapy Screening Program (ETSP)). Pharmacological evaluation was planned and performed in accordance with the Institute of Laboratory Resources polices on the humane care of laboratory animals and approved by the University of Utah’s Institutional Animal Care and Use Committee (IACUC). All testing protocols were previously published as well as they are available on the NIH website. In the tests, albino mice Carworth Farms No.1 (CF-1) (Charles River), C57/Bl6 mice (Charles River), Frings mice (University of Utah) or male rats Sprague–Dawley (Charles River) were used. All animals were housed, fed, and handled in a manner consistent with the recommendations in the National Council Publication, ‘Guide for the Care and Use of Laboratory animals’ [51]. The tested compound was suspended in 0.5% methylcellulose.
The tested compound was administered i.p. or p.o. at certain dose. Then, subcutaneous injection of metrazol (syn. pentetrazol, pentylenepentetrazol) dissolved in 0.9% NaCl at the dose of 85 mg/kg (mice) or 70 mg/kg (rats) was performed to induce seizures. Protection was scored if there was not an observed episode of clonic spasm of at least 5 sec.

C[C@H](O)CNC(=O)/C=C/c1ccccc1 [KM-568, S(+)-(2E)-N-(2-hydroxypropyl)-3-phenylprop-2-enamide] gave a fold induction at 90 min, 0.1 mM [1] of 0.1, a fold induction at 90 min, 0.2 mM [1] of 0.9 and a fold induction at 90 min, 0.5 mM [1] of 0.7. For the same molecule, the “mutagenic activity in the Ames MPF assay” value [2] was “did not exhibit mutagenic activity”, the fold induction at 90 min, 0.1 mM [3] was 0.7 and the fold induction at 90 min, 0.2 mM [3] was 1.3. It also gave a fold induction at 90 min, 0.5 mM [3] of 1.1, an ED50 (mice; ip, 0.25 h) of 104 mg/kg and an ED50 (mice; po, 0.5 h) of 107 mg/kg. For the same molecule, the “scMET Results (protected/tested animals)” value (mice; i.p., 70 mg/kg, 0.25 h) was 2/8, the “scMET Results (protected/tested animals)” value (mice; i.p., 100 mg/kg, 0.25 h) was 3/8 and the “scMET Results (protected/tested animals)” value (mice; i.p., 138 mg/kg, 0.25 h) was 5/8. The “scMET Results (protected/tested animals)” value (mice; i.p., 170 mg/kg, 0.25 h) was 8/8, the “scMET Results (protected/tested animals)” value (mice; p.o., 50 mg/kg, 0.5 h) was 1/8 and the “scMET Results (protected/tested animals)” value (mice; p.o., 100 mg/kg, 0.5 h) was 4/8. For the same molecule, the “scMET Results (protected/tested animals)” value (mice; p.o., 150 mg/kg, 0.5 h) was 4/8 and the “scMET Results (protected/tested animals)” value (mice; p.o., 200 mg/kg, 0.5 h) was 8/8.
